In ChEMBL document CHEMBL5715954, “Silencing c-Myc translation as a therapeutic strategy through targeting PI3Kδ and CK1ε in hematological malignancies” (Blood, 2017):

Experiments:
Parameters in all cases: scale not given: the % may be the effect or the level left
[1] = target: CDK7/Cyclin H/MNAT1 (Homo sapiens) (UniProt P51946+P50613+P51948); assay: Inhibition of human CDK7/Cyclin H/MNAT1 assessed as enzyme activity at 1 uM using myelin basic protein as substrate preincubated for 20 mins followed by [gamma-33P]-ATP addition and measured after 120 mins by radiometric Hot-SpotSM Kinase assay relative to control; assay type: protein-complex assay
[2] = target: T1, Beta-adrenergic receptor kinase 1 (Homo sapiens) (UniProt P25098); assay: Inhibition of human GRK2 assessed as enzyme activity at 1 uM using casein as substrate preincubated for 20 mins followed by [gamma-33P]-ATP addition and measured after 120 mins by radiometric Hot-SpotSM Kinase assay relative to control
T1 sequence (whole entry): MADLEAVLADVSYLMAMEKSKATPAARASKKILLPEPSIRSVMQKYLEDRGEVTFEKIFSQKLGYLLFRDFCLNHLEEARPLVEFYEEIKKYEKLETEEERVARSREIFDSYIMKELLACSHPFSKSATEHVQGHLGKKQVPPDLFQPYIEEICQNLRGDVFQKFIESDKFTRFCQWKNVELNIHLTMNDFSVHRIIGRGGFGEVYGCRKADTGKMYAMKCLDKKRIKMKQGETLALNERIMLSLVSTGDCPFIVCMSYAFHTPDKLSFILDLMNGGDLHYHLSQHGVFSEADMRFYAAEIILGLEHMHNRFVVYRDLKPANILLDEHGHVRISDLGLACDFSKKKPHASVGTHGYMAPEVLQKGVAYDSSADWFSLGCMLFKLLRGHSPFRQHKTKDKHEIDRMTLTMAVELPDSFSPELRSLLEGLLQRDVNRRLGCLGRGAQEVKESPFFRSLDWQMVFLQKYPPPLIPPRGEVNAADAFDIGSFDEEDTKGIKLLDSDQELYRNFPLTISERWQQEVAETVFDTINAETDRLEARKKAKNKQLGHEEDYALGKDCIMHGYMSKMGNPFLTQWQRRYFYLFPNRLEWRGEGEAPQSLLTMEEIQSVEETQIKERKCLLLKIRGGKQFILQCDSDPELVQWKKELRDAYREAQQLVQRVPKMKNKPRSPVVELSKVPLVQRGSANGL

[3] = target: T2, Serine/threonine-protein kinase TAO2 (Homo sapiens) (UniProt Q9UL54); assay: Inhibition of human TAOK2 assessed as enzyme activity at 1 uM using myelin basic protein as substrate preincubated for 20 mins followed by [gamma-33P]-ATP addition and measured after 120 mins by radiometric Hot-SpotSM Kinase assay relative to control
T2 sequence (whole entry): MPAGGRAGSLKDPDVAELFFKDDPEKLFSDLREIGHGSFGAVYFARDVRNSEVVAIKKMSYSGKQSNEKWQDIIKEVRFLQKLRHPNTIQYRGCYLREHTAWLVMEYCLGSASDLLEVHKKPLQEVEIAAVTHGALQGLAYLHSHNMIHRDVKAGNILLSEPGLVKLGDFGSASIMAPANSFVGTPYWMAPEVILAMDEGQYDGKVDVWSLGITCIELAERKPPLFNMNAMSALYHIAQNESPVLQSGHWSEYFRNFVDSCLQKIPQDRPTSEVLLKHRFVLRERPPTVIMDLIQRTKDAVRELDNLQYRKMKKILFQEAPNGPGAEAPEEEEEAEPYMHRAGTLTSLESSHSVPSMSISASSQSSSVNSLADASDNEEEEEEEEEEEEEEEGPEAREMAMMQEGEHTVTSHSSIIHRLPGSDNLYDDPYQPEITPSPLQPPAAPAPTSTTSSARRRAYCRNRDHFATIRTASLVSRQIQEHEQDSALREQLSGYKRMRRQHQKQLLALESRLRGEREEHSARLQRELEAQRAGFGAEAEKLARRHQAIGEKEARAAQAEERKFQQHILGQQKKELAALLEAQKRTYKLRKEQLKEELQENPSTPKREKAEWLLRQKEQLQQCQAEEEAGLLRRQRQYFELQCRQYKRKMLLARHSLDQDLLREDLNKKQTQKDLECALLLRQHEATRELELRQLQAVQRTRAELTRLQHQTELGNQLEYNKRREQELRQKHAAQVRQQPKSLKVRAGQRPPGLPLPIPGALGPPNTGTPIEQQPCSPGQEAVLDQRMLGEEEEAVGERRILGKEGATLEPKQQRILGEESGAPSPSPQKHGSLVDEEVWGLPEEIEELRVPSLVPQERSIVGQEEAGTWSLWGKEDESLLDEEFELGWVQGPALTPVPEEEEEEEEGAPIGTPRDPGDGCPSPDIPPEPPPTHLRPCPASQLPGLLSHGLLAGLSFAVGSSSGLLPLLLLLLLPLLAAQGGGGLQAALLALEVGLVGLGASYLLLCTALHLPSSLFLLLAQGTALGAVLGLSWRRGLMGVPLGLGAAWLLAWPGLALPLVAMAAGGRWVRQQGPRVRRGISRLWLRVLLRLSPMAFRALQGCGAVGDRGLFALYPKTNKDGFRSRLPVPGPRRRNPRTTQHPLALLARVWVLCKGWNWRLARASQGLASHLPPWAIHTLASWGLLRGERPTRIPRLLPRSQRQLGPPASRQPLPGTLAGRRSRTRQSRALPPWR

[4] = target: T3, Dual specificity tyrosine-phosphorylation-regulated kinase 4 (Homo sapiens) (UniProt Q9NR20); assay: Inhibition of human DYRK4 assessed as enzyme activity at 1 uM using RRRFRPASPLRGPPK as substrate preincubated for 20 mins followed by [gamma-33P]-ATP addition and measured after 120 mins by radiometric Hot-SpotSM Kinase assay relative to control
T3 sequence (whole entry): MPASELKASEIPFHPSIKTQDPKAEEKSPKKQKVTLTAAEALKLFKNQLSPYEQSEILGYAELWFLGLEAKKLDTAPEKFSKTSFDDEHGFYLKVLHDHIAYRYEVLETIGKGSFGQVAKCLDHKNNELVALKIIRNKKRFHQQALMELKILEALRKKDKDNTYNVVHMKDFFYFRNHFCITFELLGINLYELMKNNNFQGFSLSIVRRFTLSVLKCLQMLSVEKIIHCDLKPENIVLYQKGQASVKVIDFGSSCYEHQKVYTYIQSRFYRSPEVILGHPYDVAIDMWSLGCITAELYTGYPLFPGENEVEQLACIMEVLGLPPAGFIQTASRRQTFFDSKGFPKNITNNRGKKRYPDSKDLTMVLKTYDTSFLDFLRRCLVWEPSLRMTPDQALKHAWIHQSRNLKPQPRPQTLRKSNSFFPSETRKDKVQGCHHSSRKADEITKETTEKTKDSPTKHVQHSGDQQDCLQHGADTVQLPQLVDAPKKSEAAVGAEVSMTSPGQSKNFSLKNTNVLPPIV

[5] = target: Ribosomal protein S6 kinase alpha-4 (Homo sapiens) (UniProt O75676); assay: Inhibition of human MSK2 assessed as enzyme activity at 1 uM using GRPRTSSFAEG as substrate preincubated for 20 mins followed by [gamma-33P]-ATP addition and measured after 120 mins by radiometric Hot-SpotSM Kinase assay relative to control
Ribosomal protein S6 kinase alpha-4 (Homo sapiens), sequence (O75676 whole entry, looked up): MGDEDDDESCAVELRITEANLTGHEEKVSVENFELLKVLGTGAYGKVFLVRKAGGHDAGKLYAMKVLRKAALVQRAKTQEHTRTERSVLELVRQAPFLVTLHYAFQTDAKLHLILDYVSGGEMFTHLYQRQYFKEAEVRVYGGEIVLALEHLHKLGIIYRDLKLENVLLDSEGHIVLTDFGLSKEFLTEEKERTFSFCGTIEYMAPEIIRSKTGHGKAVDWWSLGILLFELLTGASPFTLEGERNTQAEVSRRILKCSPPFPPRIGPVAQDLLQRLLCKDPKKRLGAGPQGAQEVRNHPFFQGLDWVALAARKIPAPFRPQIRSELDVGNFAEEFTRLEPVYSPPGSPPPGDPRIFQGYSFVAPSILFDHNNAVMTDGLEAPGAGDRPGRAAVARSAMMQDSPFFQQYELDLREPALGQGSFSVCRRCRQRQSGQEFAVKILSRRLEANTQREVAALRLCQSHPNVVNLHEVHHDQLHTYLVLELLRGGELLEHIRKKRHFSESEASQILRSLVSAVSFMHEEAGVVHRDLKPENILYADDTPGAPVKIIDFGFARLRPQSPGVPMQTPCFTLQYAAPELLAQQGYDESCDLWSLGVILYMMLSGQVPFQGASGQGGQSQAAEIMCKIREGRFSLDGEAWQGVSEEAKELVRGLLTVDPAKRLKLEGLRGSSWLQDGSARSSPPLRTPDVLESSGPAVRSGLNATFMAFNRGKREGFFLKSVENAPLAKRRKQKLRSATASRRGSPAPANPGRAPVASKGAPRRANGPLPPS

| SMILES | Activity [1] [%] | Activity [2] [%] | Activity [3] [%] | Activity [4] [%] | Activity [5] [%] |
| --- | --- | --- | --- | --- | --- |
| C[C@H](Nc1ncnc2nc[nH]c12)c1cc2cccc(Cl)c2c(=O)n1-c1ccccc1 | 95.2 | 94.2 | 93.3 | 97.1 | 98.8 |
| CC[C@H](Nc1ncnc2[nH]cnc12)c1nc2cccc(F)c2c(=O)n1-c1ccccc1 | 98.1 | 93.9 | 96.7 | 100 | 98.1 |
| CC(C)Oc1ccc(-c2nn([C@@H](C)c3oc4ccc(F)cc4c(=O)c3-c3cccc(F)c3)c3ncnc(N)c23)cc1F [UMBRALISIB] | 101 | 94.5 | 97.3 | 98.8 | 94.2 |
